Numbered stars: 1 amine (or outer) side, 2 acyl side, 3 side chain; on linkers, the order of the positions; unused ones are H or OH. Bridge positions count the residues as written; N and C are the ends. Square brackets hold non-standard residues; d marks the D form. Peptide text beside a SMILES is read from it. * marks the point of attachment. ξ: configuration not given here. Phe(3-CF3) = N[C@@H](Cc1cccc(C(F)(F)F)c1)C(=O)O; Phe(3-COOH) = N[C@@H](Cc1cccc(C(=O)O)c1)C(=O)O; Phe(4-COOH) = N[C@@H](Cc1ccc(C(=O)O)cc1)C(=O)O; Bip = N[C@@H](Cc1ccc(-c2ccccc2)cc1)C(=O)O; Phe(3-Me) = Cc1cccc(C[C@H](N)C(=O)O)c1; βAsp = O=C(O)[C@H](CC(=O)[*:2])N[*:1]; NH(CH2)12COOH = O=C(O)CCCCCCCCCCCCN*; Val(3-OH) = CC(C)(O)[C@H](N)C(=O)O; Cha = N[C@@H](CC1CCCCC1)C(=O)O; Cit = NC(=O)NCCC[C@H](N)C(=O)O; Thr(3ξ) = CC(O)[C@H](N)C(=O)O; dDab = NCC[C@@H](N)C(=O)O; hSer = N[C@@H](CCO)C(=O)O; Carboxymethyl = O=C(O)C*; NMeA = CN[C@@H](C)C(=O)O; Orn = NCCC[C@H](N)C(=O)O; Aun = NCCCCCCCCCCC(=O)O; Dab = NCC[C@H](N)C(=O)O; Dap = NC[C@H](N)C(=O)O; AEEA = NCCOCCOCC(=O)O
Target: T1, PD-1/PD-L1 interaction (PE-labeled human PD-L1-Ig binding to Jurkat cell line over-expressing human PD-1) (Homo sapiens, UniProt Q15116)
T1 construct: expressed in transfected cells; host or cells: Jurkat
Experiment: Jurkat-PD-1 Cell Binding High-Content Screening Assay (CBA)
Format: cell-based
Conditions: Jurkat cell line over-expressing human PD-1; PE-labeled PD-L1-Ig 20 nM final; read-out: Jurkat hPD1-PDL1 IC50
Summary of the method: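 Jurkat-hPD-1 cells, DMEM/10% FCS; cpd 2 h 37° C; PE-PD-L1-Ig 20 nM final, 1 h; 4% PFA fix + Hoechst 33342, 3× dPBS wash; high-content imaging read-out.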

T1 sequence (Q15116 25-288): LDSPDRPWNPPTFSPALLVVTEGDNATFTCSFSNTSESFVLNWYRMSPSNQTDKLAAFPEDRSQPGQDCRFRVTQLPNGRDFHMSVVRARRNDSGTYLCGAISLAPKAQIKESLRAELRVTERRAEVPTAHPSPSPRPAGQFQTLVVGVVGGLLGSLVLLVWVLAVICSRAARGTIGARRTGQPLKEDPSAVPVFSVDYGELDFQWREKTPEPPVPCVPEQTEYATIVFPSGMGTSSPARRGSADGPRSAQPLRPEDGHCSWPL

Row | IC50 | Compound
1 | 28.3 nM | CC(C)C[C@@H]1NC(=O)CSC[C@@H](C(=O)N[C@@H](CCN)C(=O)NCCCCCCCCCCCCC(=O)O)NC(=O)[C@H](CO)NC(=O)[C@H](C(C)(C)O)NC(=O)[C@H](CC2CCCCC2)NC(=O)[C@H](CCN)NC(=O)[C@@H](CC(C)C)NC(=O)[C@H](CCCN)NC(=O)[C@H](Cc2ccc(OCC(=O)O)cc2)NC(=O)[C@H](Cc2ccc(-c3ccccc3)cc2)NC(=O)[C@H](Cc2ccc(OCC(=O)O)cc2)NC(=O)[C@H](Cc2cccc(C(F)(F)F)c2)NC(=O)[C@H](CC(=O)O)NC(=O)[C@H](Cc2ccc(OCC(=O)O)cc2)NC1=O [Compound 3835] ({CH2CO}-LY(Carboxymethyl)D[Phe(3-CF3)]Y(Carboxymethyl)[Bip]Y(Carboxymethyl)[Orn][dL][Dab][Cha][Val(3-OH)]SC[Dab]-{NH(CH2)12COOH}; thioether N-14)
2 | 2.2 nM | Cc1cccc(C[C@@H]2NC(=O)[C@H](CC(=O)O)NC(=O)[C@H](Cc3ccc(OCC(=O)O)cc3)NC(=O)[C@H](CCO)NC(=O)CSC[C@@H](C(=O)N[C@@H](CCN)C(=O)NCCCCCCCCCCC(=O)O)NC(=O)[C@H](CO)NC(=O)[C@H](C(C)(C)O)NC(=O)[C@H](CC3CCCCC3)NC(=O)[C@H](CCN)NC(=O)[C@@H](CC(C)C)NC(=O)[C@H](CCCN)NC(=O)[C@H](Cc3ccc(OCC(=O)O)cc3)NC(=O)[C@H](Cc3ccc(-c4ccccc4)cc3)NC(=O)[C@H](Cc3ccc(OCC(=O)O)cc3)NC2=O)c1 [Compound 2230] ({CH2CO}-[hSer]Y(Carboxymethyl)D[Phe(3-Me)]Y(Carboxymethyl)[Bip]Y(Carboxymethyl)[Orn][dL][Dab][Cha][Val(3-OH)]SC[Dab][Aun]-OH; thioether N-14)
3 | 9.9 nM | Cc1cccc(C[C@@H]2NC(=O)[C@H](CC(=O)O)NC(=O)[C@H](Cc3ccc(OCC(=O)O)cc3)NC(=O)[C@H](CN)NC(=O)CSC[C@@H](C(=O)NCCCCCCCCCCC(=O)O)NC(=O)[C@H](CCCN)NC(=O)[C@H](C(C)C)NC(=O)[C@H](CC3CCCCC3)NC(=O)[C@H](CCN)NC(=O)[C@@H](CC(C)C)NC(=O)[C@H](CCCN)NC(=O)[C@H](Cc3ccc(O)cc3)NC(=O)[C@H](Cc3ccc(-c4ccccc4)cc3)NC(=O)[C@H](C(C)C)NC2=O)c1 [Compound 2694] ({CH2CO}-[Dap]Y(Carboxymethyl)D[Phe(3-Me)]V[Bip]Y[Orn][dL][Dab][Cha]V[Orn]C[Aun]-OH; thioether N-14)
4 | 16 nM | Cc1cccc(C[C@@H]2NC(=O)[C@H](CC(=O)O)NC(=O)[C@H](Cc3ccc(OCC(=O)O)cc3)NC(=O)[C@H](CCN)NC(=O)CSC[C@@H](C(=O)N[C@@H](CCN)C(=O)NCCCCCCCCCCC(=O)O)NC(=O)[C@H](CO)NC(=O)[C@H](CCCCN)NC(=O)[C@H](CC3CCCCC3)NC(=O)[C@H](CCN)NC(=O)[C@@H](CC(C)C)NC(=O)[C@H](CCCN)NC(=O)[C@H](Cc3ccc(OCC(=O)O)cc3)NC(=O)[C@H](Cc3ccc(-c4ccccc4)cc3)NC(=O)[C@H](Cc3ccc(OCC(=O)O)cc3)NC2=O)c1 [Compound 3631] ({CH2CO}-[Dab]Y(Carboxymethyl)D[Phe(3-Me)]Y(Carboxymethyl)[Bip]Y(Carboxymethyl)[Orn][dL][Dab][Cha]KSC[Dab][Aun]-OH; thioether N-14)
5 | 6 nM | Cc1cccc(C[C@@H]2NC(=O)[C@H](CC(=O)O)NC(=O)[C@H](Cc3ccc(OCC(=O)O)cc3)NC(=O)[C@H](CN)NC(=O)CSC[C@@H](C(=O)N[C@@H](C)C(=O)N[C@@H](CC(=O)O)C(=O)NCCOCCOCC(=O)N[C@@H](CCC(=O)O)C(=O)NCCOCCOCC(=O)NCCCCCCCCCCC(=O)O)NC(=O)[C@H]([C@@H](C)O)NC(=O)[C@H](C(C)C)NC(=O)[C@H](CC3CCCCC3)NC(=O)[C@H](CCN)NC(=O)[C@@H](CC(C)C)NC(=O)[C@H](CCCN)NC(=O)[C@H](CCCNC(N)=O)NC(=O)[C@H](Cc3ccc(-c4ccccc4)cc3)NC(=O)[C@H](C(C)C)NC2=O)c1 [Compound 1016] ({CH2CO}-[Dap]Y(Carboxymethyl)D[Phe(3-Me)]V[Bip][Cit][Orn][dL][Dab][Cha]VTCAD[AEEA]E[AEEA][Aun]-OH; thioether N-14)
6 | 20.1 nM | Cc1cccc(C[C@@H]2NC(=O)[C@H](CC(=O)O)NC(=O)[C@H](Cc3ccc(OCC(=O)O)cc3)NC(=O)[C@H](CCCNC(=N)N)NC(=O)CSC[C@@H](C(=O)N[C@@H](CCN)C(=O)NCCCCCCCCCCC(=O)O)NC(=O)[C@H]([C@@H](C)O)NC(=O)[C@H](C(C)C)NC(=O)[C@H](CC3CCCCC3)NC(=O)[C@H](CCN)NC(=O)[C@@H](CC(C)C)NC(=O)[C@H](CCN)NC(=O)[C@H](CCCNC(N)=O)NC(=O)[C@H](Cc3ccc(-c4ccccc4)cc3)NC(=O)[C@H](C(C)C)NC2=O)c1 [Compound 2777] ({CH2CO}-RY(Carboxymethyl)D[Phe(3-Me)]V[Bip][Cit][Dab][dL][Dab][Cha]VTC[Dab][Aun]-OH; thioether N-14)
7 | 5.7 nM | Cc1cccc(C[C@@H]2NC(=O)[C@H](CC(=O)O)NC(=O)[C@H](Cc3ccc(OCC(=O)O)cc3)NC(=O)[C@H](CN)NC(=O)CSC[C@@H](C(=O)N[C@@H](C)C(=O)N[C@@H](CCC(=O)O)C(=O)NCCOCCOCC(=O)N[C@@H](CC(=O)NCCOCCOCC(=O)NCCCCCCCCCCC(=O)O)C(=O)O)NC(=O)[C@H]([C@@H](C)O)NC(=O)[C@H](C(C)C)NC(=O)[C@H](CC3CCCCC3)NC(=O)[C@H](CCN)NC(=O)[C@@H](CC(C)C)NC(=O)[C@H](CCCN)NC(=O)[C@H](CCCNC(N)=O)NC(=O)[C@H](Cc3ccc(-c4ccccc4)cc3)NC(=O)[C@H](C(C)C)NC2=O)c1 [Compound 1022] ({CH2CO}-[Dap]Y(Carboxymethyl)D[Phe(3-Me)]V[Bip][Cit][Orn][dL][Dab][Cha]VTCAE[AEEA][βAsp][AEEA][Aun]-OH; thioether N-14)
8 | 12.6 nM | Cc1cccc(C[C@@H]2NC(=O)[C@H](CC(=O)O)NC(=O)[C@H](Cc3ccc(OCC(=O)O)cc3)NC(=O)[C@H](CN)NC(=O)CSC[C@@H](C(=O)N[C@@H](CCN)C(=O)NCCCCCCCCCCC(=O)O)NC(=O)[C@H](CO)NC(=O)[C@H](C(C)C)NC(=O)[C@H](CC3CCCCC3)NC(=O)[C@H](CCN)NC(=O)[C@@H](CC(C)C)NC(=O)[C@H](CCCN)NC(=O)[C@H](Cc3ccc(OCC(=O)O)cc3)NC(=O)[C@H](Cc3ccc(-c4ccccc4)cc3)NC(=O)[C@H](Cc3ccc(OCC(=O)O)cc3)NC2=O)c1 [Compound 2084] ({CH2CO}-[Dap]Y(Carboxymethyl)D[Phe(3-Me)]Y(Carboxymethyl)[Bip]Y(Carboxymethyl)[Orn][dL][Dab][Cha]VSC[Dab][Aun]-OH; thioether N-14)
9 | 15 nM | CC(=O)NCCCC[C@@H]1NC(=O)[C@H](C(C)C)NC(=O)[C@H](CC2CCCCC2)NC(=O)[C@H](CCN)NC(=O)[C@@H](CC(C)C)NC(=O)[C@H](CCCN)NC(=O)[C@H](Cc2ccc(O)cc2)NC(=O)[C@H](Cc2ccc(-c3ccccc3)cc2)NC(=O)[C@H](C(C)C)NC(=O)[C@H](Cc2c[nH]c3ccccc23)NC(=O)[C@H](CC(=O)O)NC(=O)[C@H](Cc2ccc(C(=O)O)cc2)NC(=O)[C@H](Cc2ccc(OCC(=O)O)cc2)NC(=O)CSC[C@@H](C(=O)N[C@H](CCN)C(=O)NCCCCCCCCCCC(=O)O)NC1=O [Compound 3404] ({CH2CO}-Y(Carboxymethyl)[Phe(4-COOH)]DWV[Bip]Y[Orn][dL][Dab][Cha]VK(Ac)C[dDab][Aun]-OH; thioether N-14)
10 | 27.4 nM | Cc1cccc(C[C@@H]2NC(=O)[C@H](CC(=O)O)NC(=O)[C@H](Cc3ccc(OCC(=O)O)cc3)NC(=O)[C@H](CCCNC(=N)N)NC(=O)CSC[C@@H](C(=O)N[C@@H](CCN)C(=O)NCCCCCCCCCCC(=O)O)NC(=O)[C@H](C(C)O)NC(=O)[C@H](C(C)C)NC(=O)[C@H](CC3CCCCC3)NC(=O)[C@H](CCN)NC(=O)[C@@H](CC(C)C)NC(=O)[C@H](CCC(=O)O)NC(=O)[C@H](Cc3ccc(O)cc3)NC(=O)[C@H](Cc3ccc(-c4ccccc4)cc3)NC(=O)[C@H](Cc3ccc(O)cc3)NC2=O)c1 (stereo partly drawn) [Compound 3373] ({CH2CO}-RY(Carboxymethyl)D[Phe(3-Me)]Y[Bip]YE[dL][Dab][Cha]V[Thr(3ξ)]C[Dab][Aun]-OH; thioether N-14)
11 | 15.4 nM | Cc1cccc(C[C@@H]2NC(=O)[C@H](CC(=O)O)NC(=O)[C@H](Cc3ccc(OCC(=O)O)cc3)NC(=O)[C@H](CN)NC(=O)CSC[C@@H](C(=O)N[C@@H](CCN)C(=O)NCCOCCOCC(=O)NCCCCCCCCCCC(=O)O)NC(=O)[C@H](CCCN)NC(=O)[C@H](C(C)C)NC(=O)[C@H](CC3CCCCC3)NC(=O)[C@H](CCN)NC(=O)[C@@H](CC(C)C)NC(=O)[C@H](CCCN)NC(=O)[C@H](Cc3ccc(O)cc3)NC(=O)[C@H](Cc3ccc(-c4ccccc4)cc3)NC(=O)[C@H](Cc3cccc(C(=O)O)c3)NC2=O)c1 [Compound 2064] ({CH2CO}-[Dap]Y(Carboxymethyl)D[Phe(3-Me)][Phe(3-COOH)][Bip]Y[Orn][dL][Dab][Cha]V[Orn]C[Dab][AEEA][Aun]-OH; thioether N-14)
12 | 9.6 nM | Cc1cccc(C[C@@H]2NC(=O)[C@H](CC(=O)O)NC(=O)[C@H](Cc3ccc(OCC(=O)O)cc3)NC(=O)[C@H](CN)NC(=O)CSC[C@@H](C(=O)NCCOCCOCC(=O)NCCCCCCCCCCC(=O)O)NC(=O)[C@H](CCCN)NC(=O)[C@H](C(C)C)NC(=O)[C@H](CC3CCCCC3)NC(=O)[C@H](CCN)NC(=O)[C@@H](CC(C)C)NC(=O)[C@H](CCCN)NC(=O)[C@H](CCC(=O)O)NC(=O)[C@H](Cc3ccc(-c4ccccc4)cc3)NC(=O)[C@H](C(C)C)NC2=O)c1 [Compound 2667] ({CH2CO}-[Dap]Y(Carboxymethyl)D[Phe(3-Me)]V[Bip]E[Orn][dL][Dab][Cha]V[Orn]C[AEEA][Aun]-OH; thioether N-14)
13 | 68.5 nM | Cc1cccc(C[C@@H]2NC(=O)[C@H](CC(=O)O)NC(=O)[C@H](Cc3ccc(OCC(=O)O)cc3)NC(=O)[C@H](C(C)O)NC(=O)CSC[C@@H](C(=O)N(C)[C@@H](C)C(=O)NCCOCCOCC(=O)NCCCCCCCCCCC(=O)O)NC(=O)[C@H](CCCN)NC(=O)[C@H](C(C)C)NC(=O)[C@H](CC3CCCCC3)NC(=O)[C@H](CCN)NC(=O)[C@@H](CC(C)C)NC(=O)[C@H](CCN)NC(=O)[C@H](C(C)C)NC(=O)[C@H](Cc3ccc(-c4ccccc4)cc3)NC(=O)[C@H](C(C)C)NC2=O)c1 (stereo partly drawn) [Compound 3320] ({CH2CO}-[Thr(3ξ)]Y(Carboxymethyl)D[Phe(3-Me)]V[Bip]V[Dab][dL][Dab][Cha]V[Orn]C[NMeA][AEEA][Aun]-OH; thioether N-14)

— patent US20260022142A1, “MACROCYCLIC IMMUNOMODULATORS” (Bristol-Myers Squibb Company, priority 2022, published 2026)
